Data taken from patent CN112159318A, “一种具有抗病毒活性的大叶桉酮及其制备方法和用途” (Kunming Institute of Botany of CAS, priority 2020, dated 2021).
“Also recorded” adds a separate entry of the source.

What was measured:
[1] = system: Zika virus [寨卡病毒]; details: cited from earlier work
[2] = target: NS5 methyltransferase [NS5甲基转移酶]; details: NS5 methyltransferase inhibitors; cited from earlier work
[3] = system: viral RNA polymerase [病毒RNA聚合酶]; details: adenosine analogue; cited from earlier work
[4] = system: Zika virus [寨卡病毒]; details: cited from earlier work; remark: listed apart in the source
[5] = system: ZIKV SZ-WIV01; assay: Plaque assay, ZIKV SZ-WIV01 in Vero cells; format: cell-based, Zika virus; details: for EC50: Zika virus, Vero, 96 h
[6] = system: ZIKV MR766; assay: Plaque assay, ZIKV MR766 in Vero cells; format: cell-based; details: Zika virus, 96 h
[7] = MTT cytotoxicity in Vero cells; format: cell-based, African green monkey; details: monkey
[8] = system: Vero cells [Vero细胞]; assay: MTT cytotoxicity in Vero cells; format: cell-based, African green monkey; details: Vero CC50 relative to anti-ZIKV EC50; strain not stated
[9] = system: ZIKV SZ-WIV01; assay: qRT-PCR of ZIKV RNA in supernatant of infected Vero cells; format: cell-based, Zika virus; details: ZIKV SZ-WIV01 500 PFU, 3.125-25 μM, 48 h
[10] = system: ZIKV MR766 E protein [ZIKV E蛋白]; assay: Western blot of ZIKV E protein expression; format: cell-based, Zika virus; details: 48 h
[11] = system: ZIKV SZ-WIV01; assay: Immunofluorescence of ZIKV E protein positive Vero cells; format: cell-based, Zika virus; details: ZIKV SZ-WIV01 MOI=1, 50 μM, 48 h, vs DMSO
[12] = system: ZIKV; assay: qRT-PCR of ZIKV replication in A549 cells; format: cell-based, Zika virus; details: human A549 cells, 0.4-50 μM
[13] = system: ZIKV; assay: qRT-PCR of ZIKV replication in Huh-7 cells; format: cell-based, Zika virus; details: human Huh-7 cells, 0.4-50 μM
[14] = system: ZIKV SZ-WIV01; assay: Adsorption (binding) assay, qRT-PCR of ZIKV on Vero cell surface; format: cell-based, Zika virus; details: ZIKV SZ-WIV01 MOI=1, 50 μM, 4°C, 1 h, vs DMSO
[15] = system: ZIKV; assay: Internalization of ZIKV into host cells; format: cell-based, Zika virus
[16] = system: AXL; assay: Flow cytometry of AXL expression on Vero cell surface; format: cell-based, African green monkey; details: Vero cells, 50 μM, 37°C 1 h, then ZIKV SZ-WIV01 MOI=1, 1 h
[17] = system: ZIKV SZ-WIV01; assay: Time-of-addition assay, qRT-PCR, Vero cells; format: cell-based, Zika virus; details: ZIKV SZ-WIV01 MOI=1, 50 μM
[18] = target: T1, RNA-dependent RNA polymerase (RdRp) of ZIKV NS5 [ZIKV的RNA依赖的RNA聚合酶(RdRp)] (Zika virus, UniProt Q32ZE1); assay: ZIKV NS5 RdRp activity, Gluc reporter in NS5-expressing HEK-293T cells; format: cell-based; details: 24 h
T1 construct: 1μg ZIKV NS5载体共转染到HEK-293T细胞中; expressed in transfected cells; host or cells: HEK-293T

[19] = system: Gluc luciferase [荧光素酶Gluc]; assay: Gluc activity in HEK-293T cells expressing only Gluc (counter-test); format: cell-based
[20] = system: ZIKV NS5; assay: Western blot of NS5 expression in HEK-293T cells; format: cell-based, Zika virus; details: 24 h

T1 sequence (Q32ZE1 2517-3419): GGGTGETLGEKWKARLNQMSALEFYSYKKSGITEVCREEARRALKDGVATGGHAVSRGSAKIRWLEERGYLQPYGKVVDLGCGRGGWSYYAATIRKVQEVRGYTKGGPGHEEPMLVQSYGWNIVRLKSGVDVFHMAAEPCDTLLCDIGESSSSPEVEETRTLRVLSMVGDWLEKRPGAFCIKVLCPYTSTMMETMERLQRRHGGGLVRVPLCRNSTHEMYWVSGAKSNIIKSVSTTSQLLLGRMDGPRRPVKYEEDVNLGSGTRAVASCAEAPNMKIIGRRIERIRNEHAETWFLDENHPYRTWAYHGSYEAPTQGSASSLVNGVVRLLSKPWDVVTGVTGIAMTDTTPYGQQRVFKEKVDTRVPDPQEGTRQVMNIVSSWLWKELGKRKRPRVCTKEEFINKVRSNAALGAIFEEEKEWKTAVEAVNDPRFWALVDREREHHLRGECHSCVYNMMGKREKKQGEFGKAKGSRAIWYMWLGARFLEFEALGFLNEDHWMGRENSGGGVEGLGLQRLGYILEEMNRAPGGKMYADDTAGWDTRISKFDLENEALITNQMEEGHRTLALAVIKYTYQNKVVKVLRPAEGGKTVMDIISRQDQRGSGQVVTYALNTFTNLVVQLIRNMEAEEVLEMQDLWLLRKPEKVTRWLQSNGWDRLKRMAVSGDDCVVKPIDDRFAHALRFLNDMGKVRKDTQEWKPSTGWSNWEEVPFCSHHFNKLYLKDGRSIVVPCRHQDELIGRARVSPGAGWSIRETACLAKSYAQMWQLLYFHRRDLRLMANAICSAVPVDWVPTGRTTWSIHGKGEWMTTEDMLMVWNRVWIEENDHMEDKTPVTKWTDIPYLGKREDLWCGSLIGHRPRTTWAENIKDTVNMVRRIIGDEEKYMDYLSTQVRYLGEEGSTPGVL

Cc1c(-c2ccc(-c3ccccc3F)cc2)nc2ccc(F)cc2c1C(=O)O [Brequinar]
anti-Zika virus activity [1]: 具有抗寨卡病毒活性

COc1c(C)c2c(c(O)c1C/C=C(\C)CCC(=O)O)C(=O)OC2 [麦考酚酸]
anti-Zika virus activity [1]: 具有抗寨卡病毒活性

Nc1ncnc2c1ncn2[C@@H]1O[C@H](CSCC[C@H](N)C(=O)O)[C@@H](O)[C@H]1O [S-腺苷基-同型半胱氨酸, S-adenosyl-L-homocysteine]
IC50 [2]: 0.43 µM

Nc1ncnc2c([C@@H]3N[C@H](CO)[C@@H](O)[C@H]3O)c[nH]c12 [BCX4430]
inhibition of viral RNA polymerase function [3]: 能抑制病毒RNA聚合酶的功能

Nc1ncnc2c1ncn2[C@@H]1O[C@H](C[C@@H](N)CC[C@H](N)C(=O)O)[C@@H](O)[C@H]1O [西奈芬净, Sinefungin]
IC50 [2]: 1.18 µM

Cc1ccc(C(=O)Nc2ccc(S(=O)(=O)O)c3cc(S(=O)(=O)O)cc(S(=O)(=O)O)c23)cc1NC(=O)c1cccc(NC(=O)Nc2cccc(C(=O)Nc3cc(C(=O)Nc4ccc(S(=O)(=O)O)c5cc(S(=O)(=O)O)cc(S(=O)(=O)O)c45)ccc3C)c2)c1 [苏拉明]
effect on Zika virus binding and attachment to host cells [4]: 可以影响寨卡病毒的结合以及与宿主细胞的附着

COc1cc(O)c(C(CC(C)C)c2c(O)cc(OC)c(C(=O)C(C)C)c2O)c(O)c1C(=O)C(C)C [大叶桉酮G, Eucalyprobusone G]
inhibition of ZIKV-induced plaque formation ([5]; Vero cells, 3.125-25 μM, vs DMSO): 以剂量依赖方式抑制ZIKV感染诱导的噬斑形成 | EC50 [5]: 10.1 ± 3.84 µM | anti-Zika virus activity compared with positive control ribavirin ([5]; plaque assay, ZIKV SZ-WIV01 and ZIKV MR766): 优于阳性对照药利巴韦林; also recorded: 显著高于阳性对照药利巴韦林 | EC50 [6]: 0.43 ± 0.08 µM | selectivity ratio ([7]; vero cells, Vero CC50 relative to anti-ZIKV EC50, strain not stated, read-out: therapeutic index): > 49.5 | CC50 at 96 h ([7]; MTT, Vero cells, 4 days): > 500 µM | therapeutic index [8]: > 49.5 | inhibition of ZIKV RNA production [9]: 以剂量依赖性的方式抑制ZIKV RNA的产生 | expression of ZIKV E protein (Western blot) ([10]; ZIKV MR766, 2 μM or higher): 几乎完全抑制了E蛋白的表达 | expression of ZIKV E protein (Western blot), concentration dependence ([10]; ZIKV MR766, 0.08-50 μM): 随着大叶桉酮G浓度的增加,ZIKV E蛋白的表达逐渐被抑制 | ZIKV E protein positive cells (immunofluorescence) [11]: ZIKV E蛋白阳性细胞显著减少 | inhibition of ZIKV replication [12]: 以剂量依赖型方式抑制两种人源细胞中ZIKV的复制 | inhibition of ZIKV replication [13]: 以剂量依赖型方式抑制两种人源细胞中ZIKV的复制 | ZIKV adsorption (binding) to host cells [14]: 抑制了ZIKV的吸附; also recorded: 抑制ZIKV与宿主细胞的结合 | internalization of ZIKV into host cells [15]: 抑制ZIKV与宿主细胞的结合和内化 | AXL expression [16]: 不影响AXL的表达 | stage of viral life cycle acted on ([17]; added 0-12 h post infection): 主要抑制ZIKV RNA的合成 | inhibition of ZIKV replication when added 6 h post infection ([17]; supernatant at 24 h): 显著抑制了ZIKV的复制 | inhibition of NS5-induced increase in Gluc activity ([18]; 10 μmol/L): 几乎完全抑制 | inhibition of Gluc activity in NS5-expressing cells (RdRp activity) ([18]; 1.25-10 μM): 以剂量依赖性的方式抑制了表达NS5的细胞中的荧光素酶Gluc的活性; also recorded: 可以抑制NS5中RdRp结构域的活性; also recorded: 呈剂量依赖型方式降低Gluc的活性 | effect on Gluc activity in cells expressing only Gluc [19]: 对荧光素酶的活性没有影响; also recorded: 对Gluc的活性没有影响 | effect on NS5 expression [20]: 不影响NS5的表达; also recorded: 对NS5的表达没有影响

NC(=O)c1ncn([C@@H]2O[C@H](CO)[C@@H](O)[C@H]2O)n1 [利巴韦林, reference compound]
EC50 [5]: 47.5 ± 4.73 µM | EC50 [6]: 58.8 ± 1.86 µM | anti-Zika virus activity [1]: 具有抗寨卡病毒活性
